According to patent US20110015246A2, “LOFEXIDINE ENANTIOMERS FOR USE AS A TREATMENT FOR CNS DISEASE AND PATHOLOGIES AND ITS CHIRAL SYNTHESIS” (Agean LLC, priority 2006, published 2011):
Each block holds one molecule with its values, some of them ahead of it.

Columns and labels:
[1] = chills, vomiting, sweating, stomach cramps, diarrhea, muscle pain, runny nose and eyes; cited from earlier work
[2] = effect on blood pressure and bradycardiac activity (peripheral side effects); type: in vivo
[3] = system: α1-adrenergic receptors in rat brain membranes; assay: binding to α1-adrenergic receptors in rat brain membranes
[4] = system: α2-adrenergic binding sites in rat brain membranes; assay: binding to α2-adrenergic binding sites in rat brain membranes
[5] = system: pentobarbitone anesthetized normotensive rats; assay: mean arterial pressure and heart rate after intravenous administration in pentobarbitone anesthetized normotensive rats; type: in vivo, rat
pithed normotensive rats = assay: pressor effects after intravenous administration in pithed normotensive rats; type: in vivo, rat
[6] = system: brain adrenergic receptors; assay: potency at brain adrenergic receptors involved in opioid detoxification; type: binding
pithed rat = assay: electrical stimulation-evoked heart rate and diastolic pressure increase in the pithed rat; type: in vivo

Compound: CC(Oc1c(Cl)cccc1Cl)C1=NCCN1 (racemic) [Lofexidine, 2-[1-(2,6-dichlorophenoxy)ethyl]-4,5-dihydro-1H-Imidazole]
reducing the symptoms associated with heroin withdrawal [1]: effective

potency at α1-adrenergic receptors, times less potent than (−)-lofexidine ([3]; rat brain membranes, (+) vs (−)): four | potency at α2-adrenergic receptors, times less potent than (−)-lofexidine ([4]; (+) vs (−)): nine
Compound: CC(Oc1c(Cl)cccc1Cl)C1=NCCN1 (single isomer, unassigned; (+)) [(+)-lofexidine, 2-[1-(2,6-dichlorophenoxy)ethyl]-4,5-dihydro-1H-Imidazole]
peripheral side effects on blood pressure ([2]; compared to (±)-lofexidine): considerably lower | bradycardiac activity ([2]; in vivo): practically no effect | effect on reducing blood pressure ([2]; in vivo): practically no effect

affinity for α1-adrenergic receptors relative to the (+)-enantiomer (times greater) ([3]; (−) vs (+)): about four | affinity for α2-adrenergic binding sites relative to the (+)-enantiomer (times higher) ([4]; (−) vs (+)): about nine
Compound: CC(Oc1c(Cl)cccc1Cl)C1=NCCN1 (single isomer, unassigned; (-)) [(−)-lofexidine, 2-[1-(2,6-dichlorophenoxy)ethyl]-4,5-dihydro-1H-Imidazole]
effectiveness in decreasing heart rate relative to (+)-lofexidine [5]: twenty | effectiveness in decreasing mean arterial pressure relative to (+)-lofexidine [5]: twenty | doses eliciting pressor effects, times lower than (+)-lofexidine (pithed normotensive rats): 20 times | potency at brain adrenergic receptors compared with (+)-lofexidine [6]: more potent | potency in decreasing the increased heart rate evoked by electrical stimulation relative to (+)-lofexidine (pithed rat): thirty | impairment of electrical stimulation-induced increase in diastolic pressure (pithed rat; compared with (+)-lofexidine): more effectively unpaired
